Structures are written as SMILES.

For 29 compounds, IC50 results are on record in patent publication US8906852B2 (MethylGene Inc., priority 2010, dated 2014).

The assay deals with T1, VEGFR/KDR (Homo sapiens, UniProt P35968).
T1 construct: made in house; host or cells: Sf9 cells (Spodoptera frugiperda), baculovirus
T1 sequence (P35968 806-1356): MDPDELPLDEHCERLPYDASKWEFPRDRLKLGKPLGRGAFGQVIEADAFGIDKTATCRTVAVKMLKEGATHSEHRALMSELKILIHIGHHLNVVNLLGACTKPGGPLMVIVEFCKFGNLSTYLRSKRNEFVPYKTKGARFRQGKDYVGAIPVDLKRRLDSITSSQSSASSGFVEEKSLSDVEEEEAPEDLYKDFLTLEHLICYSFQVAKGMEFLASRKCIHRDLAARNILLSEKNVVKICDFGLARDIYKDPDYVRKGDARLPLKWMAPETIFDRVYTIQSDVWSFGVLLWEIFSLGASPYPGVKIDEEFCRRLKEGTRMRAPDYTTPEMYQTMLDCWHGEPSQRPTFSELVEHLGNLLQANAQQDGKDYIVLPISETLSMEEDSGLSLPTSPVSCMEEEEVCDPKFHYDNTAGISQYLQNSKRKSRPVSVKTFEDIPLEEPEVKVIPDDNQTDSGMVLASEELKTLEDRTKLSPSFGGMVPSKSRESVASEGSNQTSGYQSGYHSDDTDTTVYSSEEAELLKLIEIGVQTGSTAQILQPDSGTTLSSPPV
Briefly: VEGFR/KDR kinase inhibition, DELFIA assay. It counts as biochemical. The following applies: ATP 0.6 uM (2x Km), enzyme 5 nM. In a few lines: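 DELFIA time-resolved fluorescence readout using Europium-tagged anti-phosphotyrosine antibody after EDTA stop. Kinase reaction on plate-bound poly(Glu4,Tyr) ran 10-30 min at 30° C with 5 nM enzyme and 0.6 uM ATP (2× Km), following 4 min on-ice pre-incubation with compound; IC50 over a concentration range.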
For `CCNC(=O)N(CCOC)Cc1cnc(-c2cc3nccc(Oc4ccc(NC(=O)NC5CC5)cc4F)c3s2)n1C` [Compound 161-B, 1-((2-(7-(4-cyclopropylaminocarbonylamino-2-fluorophenoxy)thieno[3,2-b]pyridin-2-yl)-1-methyl-1H-imidazol-5-yl)methyl)-3-ethyl-1-(2-methoxyethyl)urea], the IC50 was under 50 nM.

`O=C(Nc1ccc(Oc2ccnc3cc(-c4cnn(CCN5CCCC5=O)c4)sc23)c(F)c1)NC1CC1` [Compound 166, 1-cyclopropyl-3-(3-fluoro-4-(2-(1-(2-(2-oxopyrrolidin-1-yl)ethyl)-1H-pyrazol-4-yl)thieno[3,2-b]pyridin-7-yloxy)phenyl)urea] yielded an IC50 of under 50 nM.

`O=C(O)CCCNCc1ccc(-c2cc3nccc(Oc4ccc(NC(=O)NC5CC5)c(F)c4F)c3s2)nc1` [Compound 168, 4-((6-(7-(4-(3-cyclopropylureido)-2,3-difluorophenoxy)thieno[3,2-b]pyridin-2-yl)pyridin-3-yl)methylamino)butanoic acid] had a concentration for half-maximal inhibition (IC50) of under 50 nM. The same measure for `O=C(Nc1ccc(Oc2ccnc3cc(-c4ccc(CN5CCCC5=O)cn4)sc23)c(F)c1F)NC1CC1` [Compound 169, 1-cyclopropyl-3-(2,3-difluoro-4-(2-(5-((2-oxopyrrolidin-1-yl)methyl)pyridin-2-yl)thieno[3,2-b]pyridin-7-yloxy)phenyl)urea]: under 50 nM; for `NC(CCCCNCc1ccc(-c2cc3nccc(Oc4ccc(NC(=O)NC5CC5)c(F)c4F)c3s2)nc1)C(=O)O` (centres unmarked) [Compound 170, 2-amino-6-((6-(7-(4-(3-cyclopropylureido)-2,3-difluorophenoxy)thieno[3,2-b]pyridin-2-1)pyridin-3-yl)methylamino)hexanoic acid]: under 50 nM. Compound `COCCOCCOCCOCCNCc1ccc(-c2cc3nccc(Oc4ccc(NC(=O)NC5CC5)c(F)c4F)c3s2)nc1` [Compound 171, 1-(4-(2-(5-5,8,11,14-tetraoxa-2-azapentadecylpyridin-2-yl)thieno[3,2-b]pyridin-7-yloxy)-2,3-diiluorophenyl)-3-cyclopropylurea] registered an IC50 of under 50 nM. `O=C(O)CCN1CCN(Cc2ccc(-c3cc4nccc(Oc5ccc(NC(=O)NC6CC6)c(F)c5F)c4s3)nc2)CC1` [Compound 172, 3-(4-((6-(7-(4-(3-cyclopropylureido)-2,3-difluorophenoxy)thieno-[3,2-b]pyridin-2-yl)pyridin-3-yl)methyl)piperazin-1-yl)propanoic acid]: the IC50 is under 50 nM. With `O=C(Nc1ccc(Oc2ccnc3cc(-c4ccc(CN5CCC[C@H]5C(=O)O)cn4)sc23)c(F)c1)NC1CC1` [Compound 173, (S)-1-((6-(7-(4-(3-cyclopropylureido)-2-fluorophenoxy)thieno[3,2-b]pyridin-2-yl)pyridin-3-yl)methyl)pyrrolidine-2-carboxylic acid], the half-inhibitory concentration (IC50) was under 50 nM. In turn, `O=C(Nc1ccc(Oc2ccnc3cc(-c4ccc(CCN5CCOCC5)cn4)sc23)c(F)c1)NC1CC1` [Compound 178, 1-cyclopropyl-3-(3-fluoro-4-(2-(5-(2-morpholinoethyl)pyridin-2-yl)thieno[3,2-b]pyridin-7-yloxy)phenyl)urea] had an IC50 of under 50 nM. Take `COCCOCCOCCOCCN(C)Cc1ccc(-c2cc3nccc(Oc4ccc(NC(=O)NC5CC5)cc4F)c3s2)nc1` [Compound 180, 1-cyclopropyl-3-(3-fluoro-4-(2-(5-(2-methyl-5,8,11,14-tetraoxa-2-azapentadecyl)pyridin-2-yl)thieno[3,2-b]pyridin-7-yloxy)phenyl)urea]: the IC50 was under 50 nM. As to `COCCNCCc1ccc(-c2cc3nccc(Oc4ccc(NC(=O)Nc5cc(C)on5)cc4F)c3s2)nc1` [Compound 183, 1-(3-fluoro-4-(2-(5-(2-(2-methoxyethylamino)ethyl)pyridin-2-yl)thieno[3,2-b]pyridin-7-yloxy)phenyl)-3-(5-methylisoxazol-3-yl)urea], the IC50 was under 50 nM.

`COCCNCCc1ccc(-c2cc3nccc(Oc4ccc(NC(=O)C5(C(=O)Nc6ccc(F)cc6)CC5)cc4F)c3s2)nc1` [Compound 185, N-(3-fluoro-4-(2-(5-(2-(2-methoxyethylamino)ethyl)pyridin-2-yl)thieno[3,2-b]pyridin-7-yloxy)phenyl)-N-(4-fluorophenyl)cyclopropane-1,1-dicarboxamide]: the half-maximal inhibitory concentration (IC50) was under 50 nM.

`COCCNCCc1ccc(-c2cc3nccc(Oc4ccc(NC(=S)NC(=O)Cc5ccc(F)cc5)cc4F)c3s2)nc1` [Compound 187, N-(3-fluoro-4-(2-(5-(2-(2-methoxyethylamino)ethyl)pyridin-2-yl)thieno[3,2-b]pyridin-7-yloxy)phenylcarbamothioyl)-2-(4-fluorophenyl)acetamide] registered a concentration for half-maximal inhibition (IC50) of under 50 nM. In turn, `COCCN(Cc1cnc(-c2cc3nccc(Oc4ccc(NC(=O)NC5CC5)cc4F)c3s2)n1C)C(=O)NC(C)C` [Compound 189] returned an IC50 of under 50 nM. The same measure for `COCCN(Cc1ccc(-c2cc3nccc(Oc4ccc(NC(=O)NC5CC5)cc4F)c3s2)nc1)C(=O)NC(C)C` [Compound 190, 1-((6-(7-(4-cyclopropylaminocarbonylamino-2-fluorophenoxy)-thieno[3,2-b]pyridin-2-yl)pyridin-3-yl)methyl)-3-isopropyl-1-(2-methoxyethyl)urea]: under 50 nM; for `COCCN(Cc1ccc(-c2cc3nccc(Oc4ccc(NC(=O)NC5CC5)cc4F)c3s2)cc1)C(=O)NC(C)C` [Compound 193, 1-(4-(7-(4-cyclopropylaminocarbonylamino-2-fluorophenoxy)thieno-[3,2-b]pyridin-2-yl)benzyl)-3-isopropyl-1-(2-methoxyethyl)urea]: under 50 nM. As for `COCCN(Cc1ccc(-c2cc3nccc(Oc4ccc(NC(=O)NC5CC5)cc4F)c3s2)cc1)C(=O)NC1CCCC1` [Compound 194, 1-(4-(7-(4-cyclopropylaminocarbonylamino-2-fluorophenoxy)thieno-[3,2-b]pyridin-2-yl)benzyl)-3-cyclopentyl-1-(2-methoxyethyl)urea], the figure is under 50 nM; as for `CCNC(=O)N(CCOC)Cc1ccc(-c2cc3nccc(Oc4ccc(NC(=O)NC5CC5)cc4F)c3s2)cc1` [Compound 195, 1-(4-(7-(4-cyclopropylaminocarbonylamino-2-fluorophenoxy)thieno[3,2-b]pyridin-2-yl)benzyl)-3-ethyl-1-(2-methoxyethyl)urea], under 50 nM. Compound `CC(C)NC(=O)Nc1ccc(Oc2ccnc3cc(-c4ccc(CN5CCCOC5=O)cn4)sc23)c(F)c1` [Compound 201, 1-(3-fluoro-4-(2-(5-((2-oxo-1,3-oxazinan-3-yl)methyl)pyridin-2-yl)thieno[3,2-b]pyridin-7-yloxy)phenyl)-3-isopropylurea] came in with a concentration for half-maximal inhibition (IC50) of under 50 nM. In turn, `CC(C)NC(=O)Nc1ccc(Oc2ccnc3cc(-c4ccc(CN5CCCC5=O)cc4)sc23)c(F)c1` [Compound 205, 1-(3-fluoro-4-(2-(4-((2-oxopyrrolidin-1-yl)methyl)phenyl)thieno[3,2-b]pyridin-7-yloxy)phenyl)-3-isopropylurea] had an IC50 of 50 to 100 nM. `COCCN(Cc1cnc(-c2cc3nccc(Oc4ccc(NC(=O)NC5CC5)cc4F)c3s2)n1C)C(C)=O` [Compound 212, N-((2-(7-(4-(3-cyclopropylureido)-2-fluorophenoxy)thieno[3,2-b]pyridin-2-yl)-1-methyl-1H-imidazol-5-yl)methyl)-N-(2-methoxyethyl)acetamide] gave an IC50 of under 50 nM. Take `Cn1c(C(=O)NCCN2CCOCC2)cnc1-c1cc2nccc(Oc3ccc(NC(=O)NC4CC4)cc3F)c2s1` [Compound 217, 2-(7-(4-(3-cyclopropylureido)-2-fluorophenoxy)thieno[3,2-b]pyridin-2-yl)-1-methyl-N-(2-morpholinoethyl)-1H-imidazole-5-carboxamide]: the IC50 was under 50 nM. The same measure for `CC(C)NC(=O)Nc1ccc(Oc2ccnc3cc(-c4ncc(C(=O)NCCN5CCOCC5)n4C)sc23)c(F)c1` [Compound 218, 2-(7-(2-fluoro-4-(3-isopropylureido)phenoxy)thieno[3,2-b]pyridin-2-yl)-1-methyl-N-(2-morpholinoethyl)-1H-imidazole-5-carboxamide]: under 50 nM; for `Cn1c(C(=O)N2CCCC2)cnc1-c1cc2nccc(Oc3ccc(NC(=O)NC4CC4)cc3F)c2s1` [Compound 222, 1-cyclopropyl-3-(3-fluoro-4-(2-(1-methyl-5-(pyrrolidine-1-carbonyl)-1H-imidazol-2-yl)thieno[3,2-b]pyridin-7-yloxy)phenyl)urea]: under 50 nM. In turn, `CC(C)NC(=O)Nc1ccc(Oc2ccnc3cc(-c4ncc(C(=O)N5CCCC5)n4C)sc23)c(F)c1` [Compound 223, 1-(3-fluoro-4-(2-(1-methyl-5-(pyrrolidine-1-carbonyl)-1H-imidazol-2-yl)thieno[3,2-b]pyridin-7-yloxy)phenyl)-3-isopropylurea] showed a half-maximal inhibitory concentration (IC50) of 100 to 250 nM.

The compound `Cn1c(C(=O)NCCCN2CCOCC2)cnc1-c1cc2nccc(Oc3ccc(NC(=O)NC4CC4)cc3F)c2s1` [Compound 224] came in with a half-inhibitory concentration (IC50) of under 50 nM. As for `O=C(Nc1ccc(Oc2ccnc3cc(-c4ccc(C(=O)O)cn4)sc23)c(F)c1)NC1CC1` [Compound 225, 6-(7-(4-(3-Cyclopropylureido)-2-fluorophenoxy)thieno[3,2-b]pyridin-2-yl)nicotinic acid], the 50% inhibitory concentration (IC50) was under 50 nM.

In turn, `CN(C)[C@@H]1CCN(C(=O)c2ccc(-c3cc4nccc(Oc5ccc(NC(=O)NC6CC6)cc5F)c4s3)nc2)C1` [Compound 227, (R)-1-cyclopropyl-3-(4-(2-(5-(3-(dimethylamino)pyrrolidine-1-carbonyl)pyridin-2-yl)thieno[3,2-b]pyridin-7-yloxy)-3-fluorophenyl)urea] had a half-maximal inhibitory concentration (IC50) of under 50 nM. The same measure for `CN1CCN(C(=O)c2ccc(-c3cc4nccc(Oc5ccc(NC(=O)NC6CC6)cc5F)c4s3)nc2)CC1` [Compound 228, 1-cyclopropyl-3-(3-fluoro-4-(2-(5-(4-methylpiperazine-1-carbonyl)pyridin-2-yl)thieno[3,2-b]pyridin-7-yloxy)phenyl)urea]: under 50 nM.
